# Laboratory results from patent US10646488B2 (Araxes Pharma LLC, priority 2016, dated 2020).
# Target: T1, KRAS G12C 1-169, his-tagged protein, GDP-loaded (Homo sapiens, UniProt P01116, G12C)
# T1 construct: KRAS G12C 1-169, his-tagged protein, GDP-loaded
# Test: Covalent binding (% modification) to KRAS G12C by mass spectrometry; note: test concentration or dose not given here
# Details: covalent binding to KRAS G12C after a three minute incubation period
row,SMILES,Binding %
1,"C=CC(=O)N1C[C@H](C)N(c2nc(Oc3ccnn3C)nc3c(F)c(-c4c(O)cccc4F)c(Cl)cc23)C[C@H]1C [Compound 208, 1-((2R,5S)-4-(6-chloro-8-fluoro-7-(2-fluoro-6-hydroxyphenyl)-2-((1-methyl-1H-pyrazol-5-yl)oxy)quinazolin-4-yl)-2,5-dimethyl-piperazin-1-yl) prop-2-en-1-one]",+++ (+++ indicates binding activity greater than 90%)
2,"C=CC(=O)N1C[C@H](C)N(c2nc(OCCN3CCC(F)(F)C3)nc3c(F)c(-c4c(C)ccc5[nH]ncc45)c(Cl)cc23)C[C@H]1C [Compound 209, 1-((2R,5S)-4-(6-chloro-2-(2-(3,3-difluoropyrrolidin-1-yl)ethoxy)-8-fluoro-7-(5-methyl-1H-indazol-4-yl)quinazolin-4-yl)-2,5-dimethyl-piperazin-1-yl) prop-2-en-1-one]",+++ (+++ indicates binding activity greater than 90%)
3,"C=CC(=O)N1C[C@H](C)N(c2nc(OCCCN(C)C)nc3c(F)c(-c4cc(O)cc5ccccc45)c(C(F)(F)F)cc23)C[C@H]1C [Compound 210, 1-((2R,5S)-4-(2-(3-(dimethylamino)propoxy)-8-fluoro-7-(3-hydroxy-naphthalen-1-yl)-6-(trifluoromethyl)quinazolin-4-yl)-2,5-dimethyl-piperazin-1-yl) prop-2-en-1-one]",+++ (+++ indicates binding activity greater than 90%)
4,"C=CC(=O)N1C[C@H](C)N(c2nc(N3CC(N(C)C)C3)nc3c(F)c(-c4c(O)ccc5ccccc45)c(Cl)cc23)C[C@H]1C [Compound 211, 1-((2R,5S)-4-(6-chloro-2-(3-(dimethylamino)azetidin-1-yl)-8-fluoro-7-(2-hydroxynaphthalen-1-yl)quinazolin-4-yl)-2,5-dimethyl-piperazin-1-yl) prop-2-en-1-one]",++ (++ indicates binding activity from 50 to 90%)
5,"C=CC(=O)N1C[C@H](C)N(c2nc(OCCN3CCC(F)(F)C3)nc3c(F)c(-c4c(O)ccc5ccccc45)c(Cl)cc23)C[C@H]1C [Compound 213, 1-((2R,5S)-4-(6-chloro-2-(2-(3,3-difluoropyrrolidin-1-yl)ethoxy)-8-fluoro-7-(2-hydroxynaphthalen-1-yl)quinazolin-4-yl)-2,5-dimethyl-piperazin-1-yl) prop-2-en-1-one]",+ (+ indicates binding activity greater than 0% and up to 50%)
6,"C=CC(=O)N1C[C@H](C)N(c2nc(N3CC(N(C)C)C3)nc3c(F)c(-c4c(F)cccc4OC(C)=O)c(Cl)cc23)C[C@H]1C [Compound 214, 2-(4-((2S,5R)-4-acryloyl-2,5-dimethylpiperazin-1-yl)-6-chloro-2-(3-(dimethylamino)azetidin-1-yl)-8-fluoroquinazolin-7-yl)-3-fluoro-phenyl acetate]",+ (+ indicates binding activity greater than 0% and up to 50%)
7,"C=CC(=O)N1C[C@H](C)N(c2nc(OCCCN(C)C)nc3c(F)c(-c4c(C)ccc5[nH]ncc45)c(C(F)(F)F)cc23)C[C@H]1C [Compound 215, 1-((2R,5S)-4-(2-(3-(dimethylamino)propoxy)-8-fluoro-7-(5-methyl-1H-indazol-4-yl)-6-(trifluoromethyl)quinazolin-4-yl)-2,5-dimethyl-piperazin-1-yl) prop-2-en-1-one]",+++ (+++ indicates binding activity greater than 90%)
8,"C=CC(=O)N1C[C@H](C)N(c2nc(Oc3cnn(C)c3)nc3c(F)c(-c4cc(O)cc5ccccc45)c(Cl)cc23)C[C@H]1C [Compound 216, 1-((2R,5S)-4-(6-chloro-8-fluoro-7-(3-hydroxy-naphthalen-1-yl)-2-(1-methyl-1H-pyrazol-4-yloxy)quinazolin-4-yl)-2,5-dimethyl-piperazin-1-yl) prop-2-en-1-one]",++ (++ indicates binding activity from 50 to 90%)
9,"C=CC(=O)N1C[C@H](C)N(c2nc(Oc3cnn(C)c3)nc3c(F)c(-c4c(C)ccc5[nH]ncc45)c(Cl)cc23)C[C@H]1C [Compound 217, 1-((2R,5S)-4-(6-chloro-8-fluoro-7-(5-methyl-1H-indazol-4-yl)-2-(1-methyl-1H-pyrazol-4-yloxy)quinazolin-4-yl)-2,5-dimethyl-piperazin-1-yl) prop-2-en-1-one]",++ (++ indicates binding activity from 50 to 90%)
10,"C=CC(=O)N1C[C@H](C)N(c2nc(OCCCN(C)C)nc3c(F)c(-c4c(O)cccc4F)c(C(F)(F)F)cc23)C[C@H]1C [Compound 218, 1-((2R,5S)-4-(2-(3-(dimethylamino)propoxy)-8-fluoro-7-(2-fluoro-6-hydroxyphenyl)-6-(trifluoromethyl)quinazolin-4-yl)-2,5-dimethyl-piperazin-1-yl) prop-2-en-1-one]",+++ (+++ indicates binding activity greater than 90%)
11,"C=CC(=O)N1C[C@H](C)N(c2nc(OCCCN3CCC(F)(F)C3)nc3c(F)c(-c4cc(O)cc5ccccc45)c(Cl)cc23)C[C@H]1C [Compound 221, 1-((2R,5S)-4-(6-chloro-2-(3-(3,3-difluoropyrrolidin-1-yl)propoxy)-8-fluoro-7-(3-hydroxynaphthalen-1-yl)quinazolin-4-yl)-2,5-dimethyl-piperazin-1-yl) prop-2-en-1-one]",+ (+ indicates binding activity greater than 0% and up to 50%)
12,"C=CC(=O)N1C[C@H](C)N(c2nc(Oc3cn[nH]c3)nc3c(F)c(-c4c(O)cccc4F)c(Cl)cc23)C[C@H]1C [Compound 222, 1-((2R,5S)-4-(2-(1H-pyrazol-4-yloxy)-6-chloro-8-fluoro-7-(2-fluoro-6-hydroxy-phenyl)quinazolin-4-yl)-2,5-dimethyl-piperazin-1-yl) prop-2-en-1-one]",++ (++ indicates binding activity from 50 to 90%)
13,"C=CC(=O)N1C[C@H](C)N(c2nc(Oc3cn[nH]c3)nc3c(F)c(-c4c(C)ccc5[nH]ncc45)c(Cl)cc23)C[C@H]1C [Compound 223, 1-((2R,5S)-4-(2-(1H-pyrazol-4-yloxy)-6-chloro-8-fluoro-7-(5-methyl-1H-indazol-4-yl)quinazolin-4-yl)-2,5-dimethyl-piperazin-1-yl) prop-2-en-1-one]",++ (++ indicates binding activity from 50 to 90%)
14,"C=CC(=O)N1C[C@H](C)N(c2nc(OCCCN(C)C)nc3c(F)c(-c4c(O)ccc5ccccc45)c(Cl)cc23)C[C@H]1C [Compound 224, 1-((2R,5S)-4-(6-chloro-2-(3-(dimethylamino)propoxy)-8-fluoro-7-(2-hydroxy-naphthalen-1-yl)quinazolin-4-yl)-2,5-dimethyl-piperazin-1-yl) prop-2-en-1-one]",++ (++ indicates binding activity from 50 to 90%)
15,"C=CC(=O)N1C[C@H](C)N(c2nc(Oc3cnn(C)c3)nc3c(F)c(-c4c(O)cccc4F)c(Cl)cc23)C[C@H]1C [Compound 225, 1-((2R,5S)-4-(6-chloro-8-fluoro-7-(2-fluoro-6-hydroxyphenyl)-2-(1-methyl-1H-pyrazol-4-yloxy)quinazolin-4-yl)-2,5-dimethyl-piperazin-1-yl) prop-2-en-1-one]",++ (++ indicates binding activity from 50 to 90%)
16,"C=CC(=O)N1C[C@H](C)N(c2nc(OCCCN3CCC(F)(F)C3)nc3c(F)c(-c4c(O)cccc4F)c(Cl)cc23)C[C@H]1C [Compound 230, 1-((2R,5S)-4-(6-chloro-2-(3-(3,3-difluoropyrrolidin-1-yl)propoxy)-8-fluoro-7-(2-fluoro-6-hydroxyphenyl)quinazolin-4-yl)-2,5-dimethyl-piperazin-1-yl) prop-2-en-1-one]",++ (++ indicates binding activity from 50 to 90%)
17,"C=CC(=O)N1C[C@H](C)N(c2nc(OCCCN3CCC(F)(F)C3)nc3c(F)c(-c4c(C)ccc5[nH]ncc45)c(Cl)cc23)C[C@H]1C [Compound 231, 1-((2R,5S)-4-(6-chloro-2-(3-(3,3-difluoropyrrolidin-1-yl)propoxy)-8-fluoro-7-(5-methyl-1H-indazol-4-yl)quinazolin-4-yl)-2,5-dimethyl-piperazin-1-yl) prop-2-en-1-one]",++ (++ indicates binding activity from 50 to 90%)
18,"C=CC(=O)N1C[C@H](C)N(c2nc(OCCn3ccnc3)nc3c(F)c(-c4c(O)cccc4F)c(Cl)cc23)C[C@H]1C [Compound 232, 1-((2R,5S)-4-(2-(2-(1H-imidazol-1-yl)ethoxy)-6-chloro-8-fluoro-7-(2-fluoro-6-hydroxyphenyl)quinazolin-4-yl)-2,5-dimethyl-piperazin-1-yl) prop-2-en-1-one]",++ (++ indicates binding activity from 50 to 90%)
